# Laboratory results from ChEMBL document CHEMBL5046238, “Synthesis, biological evaluation, and in silico studies of potential activators of apoptosis and carbonic anhydrase inhibitors on isatin-5-sulfonamide scaffold” (Eur J Med Chem, 2022).
# Active and inactive are the calls of the source. The rule behind the calls is not given here.
# How the values were obtained:
# [1] = Antiproliferative activity against human K562/4 cells assessed as growth inhibition measured after 72 hrs by MTT assay; details: K562/4, 72 h
# Carbonic anhydrase 9 = Carbonic anhydrase 9 (Homo sapiens, UniProt Q16790); experiment: Inhibition of human CA9 preincubated for 15 mins by phenol red dye based stopped flow CO2 hydration assay
# MCF7 [2] = experiment: Antiproliferative activity against human MCF7 cells assessed as growth inhibition measured after 72 hrs by MTT assay; details: MCF7, 72 h
# K562 = experiment: Antiproliferative activity against human K562 cells assessed as growth inhibition measured after 72 hrs by MTT assay; details: K562, 72 h
# MCF7 [3] = experiment: Antiproliferative activity against human MCF7 cells assessed as growth inhibition under hypoxia conditions measured after 72 hrs by MTT assay; details: MCF7, 72 h
# T47D [4] = experiment: Antiproliferative activity against human T47D cells assessed as growth inhibition under normoxia conditions measured after 72 hrs by MTT assay
# T47D [5] = experiment: Antiproliferative activity against human T47D cells assessed as growth inhibition under hypoxia conditions measured after 72 hrs by MTT assay
# MDA-MB-231 [6] = experiment: Antiproliferative activity against human MDA-MB-231 cells assessed as growth inhibition under normoxia conditions measured after 72 hrs by MTT assay; details: MDA-MB-231, 72 h
# MDA-MB-231 [7] = experiment: Antiproliferative activity against human MDA-MB-231 cells assessed as growth inhibition under hypoxia conditions measured after 72 hrs by MTT assay; details: MDA-MB-231, 72 h
# [8] = Cytotoxicity against human MCF-10A assessed as cell viability under normoxia conditions measured after 72 hrs by MTT assay; format: toxicity, cell-based; details: MCF-10A cells
# HCT-116 [9] = experiment: Antiproliferative activity against human HCT-116p53KO subline assessed as growth inhibition measured after 72 hrs by MTT assay; details: HCT-116, 72 h
# [10] = Cytotoxicity against human MCF-10A assessed as cell viability under hypoxia conditions measured after 72 hrs by MTT assay; format: toxicity, cell-based; details: MCF-10A cells
# HCT-116 [11] = experiment: cells; details: Homo sapiens, HCT-116, 72 h
# Description: Antiproliferative activity against human HCT-116 assessed as growth inhibition measured after 72 hrs by MTT assay
# MCF7 [12] = experiment: Induction of apoptosis in human MCF7 cells assessed as NFkappaB activity upto 5 uM measured after 48 hrs by immunoblotting analysis; format: functional, cell-based; details: dose microM <=5, time 48.0 hrs
# MCF7 [13] = experiment: Induction of apoptosis in human MCF7 cells assessed as PARP cleavage upto 5 uM measured after 48 hrs by immunoblotting analysis; format: functional, cell-based; details: dose microM <=5, time 48.0 hrs
# MCF7 [14] = experiment: Induction of apoptosis in human MCF7 cells assessed as decrease in Bcl2 expression upto 5 uM measured after 48 hrs by immunoblotting analysis; format: functional, cell-based; details: dose microM <=5, time 48.0 hrs
# MCF7 [15] = experiment: Induction of apoptosis in human MCF7 cells assessed as […] in BAD protein expression upto 5 uM measured after 48 hrs by immunoblotting analysis; format: functional, cell-based; details: dose microM <=5, time 48.0 hrs
# MCF7 [16] = experiment: Induction of apoptosis in human MCF7 cells assessed as decrease in ERalpha protein expression upto 5 uM measured after 48 hrs by immunoblotting analysis; format: functional, cell-based; details: dose microM <=5, time 48.0 hrs
# Carbonic anhydrase 12 = Carbonic anhydrase 12 (Homo sapiens, UniProt O43570); experiment: Inhibition of human CA12 preincubated for 15 mins by phenol red based stopped flow CO2 hydration assay
# Chain of Carbonic anhydrase 12 (O43570 whole entry): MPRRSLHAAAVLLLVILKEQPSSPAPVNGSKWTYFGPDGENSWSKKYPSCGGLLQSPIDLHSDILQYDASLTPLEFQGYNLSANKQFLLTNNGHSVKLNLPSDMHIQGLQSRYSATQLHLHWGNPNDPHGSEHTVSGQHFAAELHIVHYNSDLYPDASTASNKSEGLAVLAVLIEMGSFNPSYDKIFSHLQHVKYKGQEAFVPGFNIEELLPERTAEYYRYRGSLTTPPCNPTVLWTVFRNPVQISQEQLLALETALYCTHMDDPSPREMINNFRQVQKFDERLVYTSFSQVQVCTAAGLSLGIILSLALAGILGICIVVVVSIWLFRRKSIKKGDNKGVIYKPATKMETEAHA
SMILES,Ki (Carbonic anhydrase 9) [µM],IC50 (MCF7 [2]) [µM],IC50 (K562) [µM],IC50 (MCF7 [3]) [µM],IC50 (T47D [4]) [µM],IC50 (T47D [5]) [µM],IC50 (MDA-MB-231 [6]) [µM],IC50 (MDA-MB-231 [7]) [µM],IC50 (HCT-116 [9]) [µM],IC50 (HCT-116 [11]) [µM],Ki (Carbonic anhydrase 12) [µM],IC50 [1] [µM],IC50 at 72 h [8] [µM],IC50 at 72 h [10] [µM],Activity (MCF7 [12]),Activity (MCF7 [13]),Activity (MCF7 [14]),Activity (MCF7 [15]),Activity (MCF7 [16])
O=C1C(=O)N(Cc2ccc(Cl)c(Cl)c2)c2ccccc21,–,> 50,20,> 50,–,–,> 50,> 50,> 50,38,–,48,–,–,inactive,Active,Active,Active,inactive
NS(=O)(=O)c1ccc2c(c1)CCC2NC(=O)c1c(F)c(F)c(F)c(F)c1F (stereo not drawn),–,9.2,12.5,13.1,> 50,> 50,26.6,25.7,45,18,–,18,> 50,> 50,–,–,–,–,–
NS(=O)(=O)c1ccc2c(c1)C(=O)C(=O)N2Cc1cc(C(F)(F)F)ccc1F,0.211,12,9,–,–,–,–,–,–,–,> 10,19.8,–,–,–,–,–,–,–
NS(=O)(=O)c1ccc2c(c1)C(=O)C(=O)N2Cc1ccc([N+](=O)[O-])cc1,2.04,> 50,> 50,–,–,–,–,–,–,–,–,> 50,–,–,–,–,–,–,–
COc1cccc2c1C(=O)c1c(O)c3c(c(O)c1C2=O)C[C@@](O)(C(=O)CO)C[C@@H]3O[C@H]1C[C@H](N)[C@H](O)[C@H](C)O1 [DOXORUBICIN],–,0.31,–,0.37,0.16,0.18,0.33,0.25,0.8,0.3,–,–,0.047,0.051,–,–,–,–,–
NS(=O)(=O)c1ccc2c(c1)C(=O)C(=O)N2Cc1c(F)cccc1F,1.03,22.7,17,–,–,–,–,–,–,–,–,40,–,–,–,–,–,–,–
NS(=O)(=O)c1ccc2c(c1)C(=O)C(=O)N2CCc1ccccc1,1.81,31.8,17.2,–,–,–,–,–,–,–,–,36,–,–,–,–,–,–,–
NS(=O)(=O)c1ccc2c(c1)C(=O)C(=O)N2Cc1ccc(SC(F)(F)F)cc1,1.77,2.6,4.5,3.2,6.3,20.3,6.9,10.8,15,14.5,> 10,6.5,6.4,8.6,Active,Active,Active,inactive,Dose-Dependent Effect
NS(=O)(=O)c1ccc2c(c1)C(=O)C(=O)N2Cc1c(F)c(F)c(F)c(F)c1F,0.195,10.2,8,–,–,–,–,–,–,–,–,> 50,–,–,–,–,–,–,–
NS(=O)(=O)c1ccc2c(c1)C(=O)C(=O)N2,1.46,> 50,> 50,–,–,–,–,–,–,–,–,> 50,–,–,–,–,–,–,–
NS(=O)(=O)c1ccc2c(c1)C(=O)C(=O)N2Cc1ccc(C(F)(F)F)cc1,0.811,8.2,16,5.5,22.6,32.6,27.1,16.3,34,30,–,50,–,–,–,–,–,–,–
NS(=O)(=O)c1ccc2c(c1)C(=O)C(=O)N2Cc1c(F)cccc1Cl,0.204,12.8,14.5,–,–,–,–,–,–,–,–,18,–,–,–,–,–,–,–
NS(=O)(=O)c1ccc2c(c1)C(=O)C(=O)N2Cc1ccccc1F,1.11,8.7,18,–,–,–,–,–,–,–,–,20,–,–,–,–,–,–,–

# More lines, main results first:
Ki (Carbonic anhydrase 9) [µM],IC50 (MCF7 [2]) [µM],IC50 (K562) [µM],IC50 (MCF7 [3]) [µM],IC50 (T47D [4]) [µM],IC50 (T47D [5]) [µM],IC50 (MDA-MB-231 [6]) [µM],IC50 (MDA-MB-231 [7]) [µM],IC50 (HCT-116 [9]) [µM],IC50 (HCT-116 [11]) [µM],Ki (Carbonic anhydrase 12) [µM],SMILES,IC50 [1] [µM],IC50 at 72 h [8] [µM],IC50 at 72 h [10] [µM],Activity (MCF7 [12]),Activity (MCF7 [13]),Activity (MCF7 [14]),Activity (MCF7 [15]),Activity (MCF7 [16])
1.03,5.1,9,4.6,20.7,> 50,28.4,40.8,30,27,–,COc1ccc(CN2C(=O)C(=O)c3cc(S(N)(=O)=O)ccc32)cc1,43,4,3.2,–,–,–,–,–
0.24,17.3,36,–,–,–,–,–,–,–,–,NS(=O)(=O)c1ccc2c(c1)C(=O)C(=O)N2Cc1ccc(F)cc1,> 50,–,–,–,–,–,–,–
0.292,13.3,11,–,–,–,–,–,–,–,–,NS(=O)(=O)c1ccc2c(c1)C(=O)C(=O)N2Cc1ccc(F)cc1Cl,32,–,–,–,–,–,–,–
1.46,6.1,17,5.9,17.1,> 50,21.8,18.5,31,32,–,NS(=O)(=O)c1ccc2c(c1)C(=O)C(=O)N2Cc1ccc(Cl)c(Cl)c1,> 50,6.6,7.3,–,–,–,–,–
0.163,7.8,8.8,5.6,12,21.8,7,8.4,20,17.5,–,NS(=O)(=O)c1ccc2c(c1)C(=O)C(=O)N2Cc1ccc(Cl)cc1Cl,18,–,–,–,–,–,–,–
1.32,26.5,35,–,–,–,–,–,–,–,–,NS(=O)(=O)c1ccc2c(c1)C(=O)C(=O)N2Cc1cc(F)cc(F)c1,37,–,–,–,–,–,–,–
0.26,6,14,4.9,18.4,42.5,22,19.1,30,23,–,NS(=O)(=O)c1ccc2c(c1)C(=O)C(=O)N2Cc1ccc(Cl)cc1,50,6.9,6.2,–,–,–,–,–
0.276,4.4,8,3.9,9.4,11.1,7.4,9.4,15,17,–,Cc1ccc(CN2C(=O)C(=O)c3cc(S(N)(=O)=O)ccc32)cc1C,17,6.2,6,–,–,–,–,–
0.244,8.4,9.8,5.9,6.3,> 50,14.2,17.6,30,17.7,> 10,NS(=O)(=O)c1ccc2c(c1)C(=O)C(=O)N2Cc1cccc(C(F)(F)F)c1,19.8,–,–,–,–,–,–,–
1.53,20.1,18,–,–,–,–,–,–,–,–,NS(=O)(=O)c1ccc2c(c1)C(=O)C(=O)N2Cc1ccccc1,> 50,–,–,–,–,–,–,–
1.68,> 50,> 50,–,–,–,–,–,–,–,–,NS(=O)(=O)c1ccc2c(c1)C(=O)C(=O)N2Cc1ccncc1,> 50,–,–,–,–,–,–,–
2.53,26.8,15.5,–,–,–,–,–,–,–,> 10,NS(=O)(=O)c1ccc2c(c1)C(=O)C(=O)N2Cc1cccc(F)c1,50,–,–,–,–,–,–,–
